Experimental data: patent US9975888B2, “Aryl linked imidazole and triazole derivatives and methods of use thereof for improving the pharmacokinetics of a drug” (MERCK SHARP & DOHME CORP., priority 2013, dated 2018)

Tests used:
Format in all cases: biochemical
CYP2C19 = molecular target: T1, CYP2C19 (Homo sapiens, UniProt P33261); test: Cocktail assay for CYPs, mephenytoin 4′-hydroxylation (CYP2C19), human liver microsomes; settings: 30 μM mephenytoin, 0.1 mg/mL human liver microsomes, 10 min at 37° C.; read-out: CYP IC50 (nM) 2C19
T1 construct: 0.1 mg/mL protein human liver microsomes (BD Gentest); tissue BD Gentest; host or cells: human liver microsomes
T1 sequence (P33261 whole entry): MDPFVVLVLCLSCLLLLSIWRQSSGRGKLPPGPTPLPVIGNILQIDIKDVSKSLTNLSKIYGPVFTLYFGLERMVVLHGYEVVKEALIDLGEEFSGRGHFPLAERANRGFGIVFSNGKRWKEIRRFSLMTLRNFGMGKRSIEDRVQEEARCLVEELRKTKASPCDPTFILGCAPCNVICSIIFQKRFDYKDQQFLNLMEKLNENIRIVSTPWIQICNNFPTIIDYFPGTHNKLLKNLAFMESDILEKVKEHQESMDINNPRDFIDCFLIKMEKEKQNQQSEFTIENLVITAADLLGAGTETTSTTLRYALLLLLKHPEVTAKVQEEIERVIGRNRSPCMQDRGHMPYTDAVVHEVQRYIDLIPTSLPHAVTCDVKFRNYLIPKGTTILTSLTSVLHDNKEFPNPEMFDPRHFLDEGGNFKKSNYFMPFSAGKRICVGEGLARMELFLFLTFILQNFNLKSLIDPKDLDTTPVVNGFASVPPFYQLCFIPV
Procedure, shortened: (§1)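 Pooled human liver microsomes (0.1 mg/mL) with probe cocktail incl. 5 μM diclofenac (CYP2C9) and 30 μM mephenytoin (CYP2C19), 1 mM NADPH, pH 7.4 phosphate buffer, 10 min at 37° C. Metabolites quantified by LC/MS/MS against internal standard; % inhibition versus no-inhibitor control, IC50 by non-linear regression.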

CYP3A4 [1] = molecular target: T2, CYP3A4 (Homo sapiens, UniProt P08684); test: Cocktail assay for CYPs, midazolam 1′-hydroxylation (CYP3A4), human liver microsomes; design: 0.1 mg/mL protein human liver microsomes (BD Gentest); tissue BD Gentest; host or cells: human liver microsomes; settings: 2 μM midazolam, 0.1 mg/mL human liver microsomes, 10 min at 37° C.; read-out: CYP IC50 (nM) 3A4 (MDZ)
Procedure, shortened: (§2)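 Pooled human liver microsomes (0.1 mg/mL) with a probe cocktail of 10 μM phenacetin, 5 μM dextromethorphan and 2 μM midazolam plus NADPH, pH 7.4, 10 min at 37° C. Each metabolite was quantified by LC/MS/MS against a tolbutamide internal standard. IC50 came from % inhibition at 6 concentrations (e.g. 0.0032–10 μM) by non-linear regression.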
Target sequence in this assay (P08684 whole entry): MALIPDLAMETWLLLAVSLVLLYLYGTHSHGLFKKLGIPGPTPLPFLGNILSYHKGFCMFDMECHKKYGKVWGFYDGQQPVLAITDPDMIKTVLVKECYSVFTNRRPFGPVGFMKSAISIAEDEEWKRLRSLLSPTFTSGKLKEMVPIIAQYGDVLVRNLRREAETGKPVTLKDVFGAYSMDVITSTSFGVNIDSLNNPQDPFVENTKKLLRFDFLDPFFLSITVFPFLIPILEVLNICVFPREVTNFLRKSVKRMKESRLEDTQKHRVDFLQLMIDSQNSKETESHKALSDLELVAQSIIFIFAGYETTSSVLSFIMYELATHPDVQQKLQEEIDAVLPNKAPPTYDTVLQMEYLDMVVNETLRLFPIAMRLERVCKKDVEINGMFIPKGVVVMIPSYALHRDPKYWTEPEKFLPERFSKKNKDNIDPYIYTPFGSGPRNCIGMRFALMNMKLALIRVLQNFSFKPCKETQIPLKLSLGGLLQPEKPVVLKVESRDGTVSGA

CYP1A2 = molecular target: T3, CYP1A2 (Homo sapiens, UniProt P05177); test: Cocktail assay for CYPs, phenacetin O-deethylation (CYP1A2), human liver microsomes; settings: 10 μM phenacetin, 0.1 mg/mL human liver microsomes, 10 min at 37° C.; read-out: CYP IC50 (nM) 1A2
T3 construct: 0.1 mg/mL protein human liver microsomes (BD Gentest); tissue BD Gentest; host or cells: human liver microsomes
T3 sequence (P05177 1-516): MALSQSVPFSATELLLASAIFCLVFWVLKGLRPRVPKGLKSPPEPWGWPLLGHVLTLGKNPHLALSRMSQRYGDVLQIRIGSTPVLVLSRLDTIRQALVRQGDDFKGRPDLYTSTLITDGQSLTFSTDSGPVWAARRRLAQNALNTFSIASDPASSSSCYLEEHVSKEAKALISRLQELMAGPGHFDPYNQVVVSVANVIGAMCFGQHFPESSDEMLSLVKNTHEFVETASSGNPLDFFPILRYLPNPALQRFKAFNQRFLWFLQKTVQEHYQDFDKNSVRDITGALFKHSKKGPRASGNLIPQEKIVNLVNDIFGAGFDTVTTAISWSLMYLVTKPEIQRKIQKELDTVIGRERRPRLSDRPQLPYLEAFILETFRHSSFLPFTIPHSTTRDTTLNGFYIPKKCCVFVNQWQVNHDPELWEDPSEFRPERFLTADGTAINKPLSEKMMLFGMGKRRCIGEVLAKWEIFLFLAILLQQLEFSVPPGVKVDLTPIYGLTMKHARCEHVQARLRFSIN
Procedure, shortened: as §2

CYP2C9 = molecular target: T4, CYP2C9 (Homo sapiens, UniProt P11712); test: Cocktail assay for CYPs, diclofenac 4′-hydroxylation (CYP2C9), human liver microsomes; settings: 5 μM diclofenac, 0.1 mg/mL human liver microsomes, 10 min at 37° C.; read-out: CYP IC50 (nM) 2C9
T4 construct: 0.1 mg/mL protein human liver microsomes (BD Gentest); tissue BD Gentest; host or cells: human liver microsomes
T4 sequence (P11712 whole entry): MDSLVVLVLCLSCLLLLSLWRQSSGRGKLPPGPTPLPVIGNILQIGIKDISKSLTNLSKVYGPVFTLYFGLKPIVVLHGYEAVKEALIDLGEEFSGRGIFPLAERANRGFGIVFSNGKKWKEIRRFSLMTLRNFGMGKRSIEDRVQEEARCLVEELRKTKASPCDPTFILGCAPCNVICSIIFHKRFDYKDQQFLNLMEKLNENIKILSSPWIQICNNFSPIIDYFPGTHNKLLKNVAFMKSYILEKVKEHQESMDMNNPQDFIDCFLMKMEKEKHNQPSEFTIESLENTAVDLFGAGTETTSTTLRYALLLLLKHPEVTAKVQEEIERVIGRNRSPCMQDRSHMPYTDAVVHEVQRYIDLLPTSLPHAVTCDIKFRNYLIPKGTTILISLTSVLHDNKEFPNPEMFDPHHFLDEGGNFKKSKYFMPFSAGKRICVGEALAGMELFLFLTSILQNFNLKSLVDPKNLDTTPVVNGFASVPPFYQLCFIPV
Procedure, shortened: as §1

CYP2D6 = molecular target: T5, CYP2D6 (Homo sapiens, UniProt P10635); test: Cocktail assay for CYPs, dextromethorphan O-demethylation (CYP2D6), human liver microsomes; settings: 5 μM dextromethorphan, 0.1 mg/mL human liver microsomes, 10 min at 37° C.; read-out: CYP IC50 (nM) 2D6
T5 construct: 0.1 mg/mL protein human liver microsomes (BD Gentest); tissue BD Gentest; host or cells: human liver microsomes
T5 sequence (P10635 whole entry): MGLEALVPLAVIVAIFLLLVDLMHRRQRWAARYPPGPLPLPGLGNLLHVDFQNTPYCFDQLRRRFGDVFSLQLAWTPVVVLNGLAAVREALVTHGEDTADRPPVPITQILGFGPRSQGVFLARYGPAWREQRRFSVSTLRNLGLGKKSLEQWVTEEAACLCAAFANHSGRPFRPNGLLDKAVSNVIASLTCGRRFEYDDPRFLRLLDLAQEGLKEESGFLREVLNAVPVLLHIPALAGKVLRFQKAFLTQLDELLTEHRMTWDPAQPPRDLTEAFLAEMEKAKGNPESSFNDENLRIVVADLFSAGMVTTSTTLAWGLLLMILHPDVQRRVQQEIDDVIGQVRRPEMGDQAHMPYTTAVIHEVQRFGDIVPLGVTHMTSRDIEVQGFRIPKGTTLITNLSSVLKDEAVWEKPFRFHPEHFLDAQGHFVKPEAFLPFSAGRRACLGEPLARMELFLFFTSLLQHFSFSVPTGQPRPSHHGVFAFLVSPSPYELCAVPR
Procedure, shortened: as §2

CYP3A4 [2] = molecular target: T2, CYP3A4; test: IC50 vs CYP3A by inhibition of lopinavir metabolism in human liver microsomes; design: 0.01 mg/mL protein human liver microsomes (BD Gentest); tissue BD Gentest; host or cells: human liver microsomes; settings: 1.5 μM lopinavir, 0.01 mg/mL human liver microsomes, 8 min at 37° C.; read-out: CYP IC50 (nM) 3A4 (LPV)
Procedure, shortened: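 Human liver microsomes (0.01 mg/mL) with 1.5 μM lopinavir, 1 mM NADPH, 3.3 mM MgCl2 in 100 mM potassium phosphate pH 7.4, 8 min at 37 °C, six compound concentrations. Summed M2/M3/M4 hydroxy metabolites quantified by LC/MS/MS against tolbutamide; % inhibition normalised between no-inhibitor and 5 μM ketoconazole controls, IC50 by non-linear regression.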
Target sequence in this assay (P08684 2-503): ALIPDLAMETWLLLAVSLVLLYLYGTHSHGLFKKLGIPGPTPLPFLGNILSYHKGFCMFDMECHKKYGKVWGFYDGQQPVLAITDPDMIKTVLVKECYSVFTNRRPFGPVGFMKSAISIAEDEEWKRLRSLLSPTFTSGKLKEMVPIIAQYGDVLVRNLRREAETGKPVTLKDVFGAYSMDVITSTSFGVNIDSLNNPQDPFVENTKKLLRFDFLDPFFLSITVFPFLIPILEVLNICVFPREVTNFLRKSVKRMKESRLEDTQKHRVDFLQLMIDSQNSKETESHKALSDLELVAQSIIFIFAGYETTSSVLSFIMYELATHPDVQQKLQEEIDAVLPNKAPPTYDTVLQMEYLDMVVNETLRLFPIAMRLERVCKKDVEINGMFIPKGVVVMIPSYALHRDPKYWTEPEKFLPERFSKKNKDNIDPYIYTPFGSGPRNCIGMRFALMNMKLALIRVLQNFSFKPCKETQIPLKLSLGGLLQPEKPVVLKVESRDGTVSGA

Compound | IC50 (CYP2C19) | IC50 (CYP3A4 [1]) | IC50 (CYP1A2) | IC50 (CYP2C9) | IC50 (CYP2D6) | IC50 (CYP3A4 [2])
CN1CCN(c2ncc(S(=O)(=O)N3CCc4c(-c5cncn5CCc5ccc(F)cc5)ccnc4C3)s2)CC1 [Compound 66, 5-((4-(1-(4-fluorophenethyl)-1H-imidazol-5-yl)-5,6-dihydro-1,7-naphthyridin-7(8H)-yl)sulfonyl)-2-(4-methylpiperazin-1-yl)thiazole] | > 10000 nM | 22.4 nM | 2680 nM | > 10000 nM | > 10000 nM | 23.8 nM
O=S(=O)(c1cnc(N2CCN3C[C@H](O)C[C@H]3C2)s1)N1CCc2cccc(-c3cncn3CCc3ccc(F)cc3)c2C1 [Compound 65, (7R,8aS)-2-(5-((8-(1-(4-fluorophenethyl)-1H-imidazol-5-yl)-3,4-dihydroisoquinolin-2(1H)-yl)sulfonyl)thiazol-2-yl)octahydropyrrolo[1,2-a]pyrazin-7-ol] | 9230 nM | 18.5 nM | > 10000 nM | 1260 nM | 4900 nM | 8.9 nM
O=S(=O)(c1cnc(Cl)c(Br)c1)N1CCCC1c1ccccc1-c1cncn1CCc1ccc(F)cc1 (stereo not drawn) [Compound 25, 3-bromo-2-chloro-5-((2-(2-(1-(4-fluoro-phenethyl)-1H-imidazol-5-yl)phenyl)pyrrolidin-1-yl)sulfonyl) pyridine] | 1890 nM | 50.3 nM | 9490 nM | 2220 nM | 2140 nM | 23 nM
CC(C)OC(=O)N1CCCC1c1ccccc1-c1cncn1CCc1ccc(F)cc1 (single isomer, unassigned) [Compound 39b, (R or S)-isopropyl 2-(2-(1-(4-fluorophenethyl)-1H-imidazol-5-yl)phenyl) pyrrolidine-1-carboxylate] | 4740 nM | 34.5 nM | > 10000 nM | 6380 nM | 8580 nM | 28.2 nM
O=S(=O)(c1cnc(N2CCN3C[C@H](O)C[C@H]3C2)s1)N1CCCC1c1ccccc1-c1cncn1CCc1ccc(F)cc1 (single isomer, unassigned) [Compound 22a, (7R,8aS)-2-(5-(((R or S)-2-(2-(1-(4-fluoro-phenethyl)-1H-imidazol-5-yl)phenyl)pyrrolidin-1-yl)sulfonyl)thiazol-2-yl) octahydro-pyrrolo[1,2-a] pyrazin-7-ol] | > 10000 nM | 5.3 nM | 7020 nM | 6300 nM | 3940 nM | 1.4 nM
CN1CCN(c2ncc(S(=O)(=O)NC(c3ccccc3)c3ccccc3-c3cncn3CCc3ccc(F)cc3)s2)CC1 (stereo not drawn) [Compound 5, N-((2-(1-(4-fluorophenethyl)-1H-imidazol-5-yl)phenyl) (phenyl)methyl)-2-(4-methylpiperazin-1-yl)thiazole-5-sulfonamide] | > 10000 nM | 65 nM | > 10000 nM | > 10000 nM | > 10000 nM | 80 nM
CN1CCN(c2ncc(S(=O)(=O)N3CCc4c(cccc4-c4cncn4CCc4ccc(F)cc4)C3)s2)CC1 [Compound 58, 5-((5-(1-(4-fluorophenethyl)-1H-imidazol-5-yl)-3,4-dihydroisoquinolin-2(1H)-yl)sulfonyl)-2-(4-methylpiperazin-1-yl)thiazole] | 2830 nM | 4.5 nM | > 10000 nM | 1350 nM | 2170 nM | 1.9 nM
CC(C)NC(=O)N1CCCC1c1ccccc1-c1cncn1CCc1ccc(F)cc1 (single isomer, unassigned) [Compound 46b, (R or S)-2-(2-(1-(4-fluorophenethyl)-1H-imidazol-5-yl)phenyl)-N-isopropyl-pyrrolidine-1-carboxamide] | > 10000 nM | 6.1 nM | > 10000 nM | > 10000 nM | > 10000 nM | 6.2 nM
O=S(=O)(c1cnc(N2CCN3C[C@H](O)C[C@H]3C2)s1)N1CCCC1c1ccccc1-c1cncn1CCc1ccc(F)cc1 (single isomer, unassigned) [Compound 22b, (7R,8aS)-2-(5-(((R or S)-2-(2-(1-(4-fluoro-phenethyl)-1H-imidazol-5-yl)phenyl)pyrrolidin-1-yl)sulfonyl)thiazol-2-yl) octahydro-pyrrolo[1,2-a] pyrazin-7-ol] | > 10000 nM | 9.6 nM | > 10000 nM | 1690 nM | 4620 nM | 4.5 nM
COc1ccc(OC)c(S(=O)(=O)N2CCCC2c2cccc(-c3cncn3CCc3ccc(F)cc3)c2)c1 (single isomer, unassigned) [Compound 53a, (R or S)-5-(3-(1-((2,5-dimethoxyphenyl)sulfonyl)pyrrolidin-2-yl)phenyl)-1-(4-fluorophenethyl)-1H-imidazole] | 78.6 nM | 8.65 nM | 1080 nM | 165 nM | 1370 nM | 2 nM
CN1CCN(c2ccc(S(=O)(=O)N3CCc4c(cccc4-c4cncn4CCc4ccc(F)cc4)C3)cn2)CC1 [Compound 59, 5-(1-(4-fluorophenethyl)-1H-imidazol-5-yl)-2-((6-(4-methylpiperazin-1-yl)pyridin-3-yl)sulfonyl)-1,2,3,4-tetrahydroisoquinoline] | 5610 nM | 4 nM | > 10000 nM | 4530 nM | 1980 nM | 1.5 nM
C[C@H](c1ccc(F)cc1)n1cncc1-c1cccc2c1CCN(S(=O)(=O)c1cnc(N3CCN4C[C@H](O)C[C@H]4C3)s1)C2 [Compound 63, (7R,8aS)-2-(5-((5-(1-((R)-1-(4-fluorophenyl)ethyl)-1H-imidazol-5-yl)-3,4-dihydroisoquinolin-2(1H)-yl)sulfonyl)thiazol-2-yl)octahydropyrrolo[1,2-a]pyrazin-7-ol] | 2610 nM | 7.5 nM | 2500 nM | 4950 nM | 3680 nM | 5 nM
Fc1ccc(CCn2cncc2-c2ccccc2C2CCCN2)cc1 (stereo not drawn) [Compound 40, 1-(4-fluorophenethyl)-5-(2-(pyrrolidin-2-yl)phenyl)-1H-imidazole] | > 10000 nM | 43.4 nM | > 10000 nM | 4560 nM | 3300 nM | 27.4 nM
O=C(c1cccnc1)N1CCCC1c1cccc(-c2cncn2CCc2ccc(F)cc2)c1 (single isomer, unassigned) [Compound 48a, (R or S)-(2-(3-(1-(4-fluorophenethyl)-1H-imidazol-5-yl)phenyl)pyrrolidin-1-yl) (pyridin-3-yl) methanone] | 5430 nM | 24.2 nM | 9300 nM | > 10000 nM | 6800 nM | 32.3 nM
O=C(c1ccc(N2CCOCC2)nc1)N1CCCC1c1ccccc1-c1cncn1CCc1ccc(F)cc1 (single isomer, unassigned) [Compound 43b, (R or S)-(2-(2-(1-(4-fluorophenethyl)-1H-imidazol-5-yl)phenyl)pyrrolidin-1-yl) (6-morpholino-pyridin-3-yl) methanone] | > 10000 nM | 5.8 nM | 4490 nM | 7950 nM | 5360 nM | 2 nM
